In patent US9840478B2 (MERCK SHARP & DOHME CORP., priority 2013, dated 2017):

test system: HIV-1 (H9IIIB strain); experiment: Cell-based HIV infection assay using a reporter (Cell-Based), MT4-GFP cells; conditions: Human immunodeficiency virus 1, MT4-GFP cells infected with HIV-1 H9IIIB; 50% normal human serum; mean of at least two independent experiments; read-out: Cell-based IP
In short: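 MT4-GFP cells (HIV LTR-driven GFP) infected 24 h with HIV-1 H9IIIB at low MOI, then washed and plated with compounds in RPMI + 50% normal human serum, 0.4% DMSO final. Green cells counted at 24 and 48 h; R0 = 48 h/24 h ratio, inhibition normalized to DMSO and triple-drug control; IC50 from 4-parameter fit.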

Going from N[C@H](C(=O)Nc1cncc(F)c1CC[C@H]1CNCCN1S(=O)(=O)CC1CC1)[C@@H](c1ccc(F)cc1)c1cc(F)cc(F)c1 [Example 28, (βS)-N-[4-(2-{(2S)-1-[(cyclopropylmethyl)sulfonyl]piperazin-2-yl}ethyl)-5-fluoropyridin-3-yl]-3,5-difluoro-β-(4-fluorophenyl)-L-phenylalaninamide] to O=C(CC1CC1)N[C@H](C(=O)Nc1cncc(F)c1CC[C@H]1CNCCN1S(=O)(=O)C1CC1)[C@@H](c1ccc(F)cc1)c1cc(F)cc(F)c1 [Example 82, (βS)-Nα-(cyclopropylacetyl)-N-(4-{2-[(2S)-1-(cyclopropylsulfonyl)piperazin-2-yl]ethyl}-5-fluoropyridin-3-yl)-3,5-difluoro-β-(4-fluorophenyl)-L-phenylalaninamide], the IC50 rises from 21 nM to 34 nM (1.6-fold).

Compared with COC(=O)N[C@H](C(=O)Nc1cccc(F)c1CC[C@H]1CNC[C@H](C)N1S(=O)(=O)c1ccccc1Cl)[C@@H](c1ccc(F)cc1)c1cc(F)cc(F)c1 [Example 231, (βS)-N-[2-(2-{(2S,6S)-1-[(2-chlorophenyl)sulfonyl]-6-methylpiperazin-2-yl}ethyl)-3-fluorophenyl]-β-(3,5-difluorophenyl)-4-fluoro-Nα-(methoxycarbonyl)-L-phenylalaninamide], COC(=O)N[C@H](C(=O)Nc1cccc(F)c1CC[C@H]1CNC[C@H](C)N1S(=O)(=O)C1CC1)[C@@H](c1ccc(F)cc1)c1cc(F)cc(F)c1 [Example 212, (βS)-N-(2-{2-[(2S,6S)-1-(cyclopropylsulfonyl)-6-methylpiperazin-2-yl]ethyl}-3-fluorophenyl)-β-(3,5-difluorophenyl)-4-fluoro-Nα-(methoxycarbonyl)-L-phenylalaninamide] is 18-fold lower in IC50: 230 nM for the first, 13 nM for the second.

First: COC(=O)N[C@H](C(=O)Nc1cccc(F)c1CC[C@H]1CNC[C@@H](C)N1S(=O)(=O)c1ccccc1)[C@@H](c1ccc(Cl)cc1)C1CCOCC1 [Example 117, (βR)-4-chloro-N-(3-fluoro-2-{2-[(2S,6R)-6-methyl-1-(phenylsulfonyl)piperazin-2-yl]ethyl}phenyl)-Nα-(methoxycarbonyl)-β-(tetrahydro-2H-pyran-4-yl)-L-phenylalaninamide]
Second: COC(=O)N[C@H](C(=O)Nc1cccc(F)c1CC[C@H]1CNC[C@H](C)N1S(C)(=O)=O)[C@@H](c1ccc(Cl)cc1)C1CCOCC1 [Example 139, (βR)-4-chloro-N-(3-fluoro-2-{2-[(2S,6S)-6-methyl-1-(methylsulfonyl)piperazin-2-yl]ethyl}phenyl)-Nα-(methoxycarbonyl)-β-(tetrahydro-2H-pyran-4-yl)-L-phenylalaninamide]
The IC50 of the first is 3.9-fold lower: 9.3 nM for the first, 36 nM for the second. The first is the more potent here.

Going from N[C@H](C(=O)Nc1cncc(F)c1CC[C@H]1CNCCN1S(=O)(=O)c1ccccc1)C(c1cccc(F)c1)c1cccc(F)c1 [Example 4, (S)-2-Amino-N-(5-fluoro-4-(2-((S)-1-(phenylsulfonyl)piperazin-2-yl)ethyl)pyridine-3-yl)-3,3-bis(3-fluorophenyl)propanamide] to COC(=O)N[C@H](C(=O)Nc1cncc(F)c1CC[C@H]1CNCCN1S(=O)(=O)c1ccccc1)C(c1cccc(F)c1)c1cccc(F)c1 [Example 54, 3-fluoro-β-(3-fluorophenyl)-N-(5-fluoro-4-{2-[(2S)-1-(phenylsulfonyl)piperazin-2-yl]ethyl}pyridin-3-yl)-Nα-(methoxycarbonyl)-L-phenylalaninamide], the IC50 rises from 4.3 nM to 9.8 nM (2.3-fold). The first is the more potent here.

Compared with COC(=O)N[C@H](C(=O)Nc1cccc(F)c1CC[C@H]1CNC[C@H](C)N1S(C)(=O)=O)[C@@H](Cc1ccc(F)cc1)c1ccc(Cl)cc1 [Example 233, (βS)-4-chloro-β-(4-fluorobenzyl)-N-(3-fluoro-2-{2-[(2S,6S)-6-methyl-1-(methylsulfonyl)piperazin-2-yl]ethyl}phenyl)-Nα-(methoxycarbonyl)-L-phenylalaninamide], C[C@H]1CNC[C@H](CCc2c(F)cccc2NC(=O)[C@@H](N)[C@@H](Cc2ccc(F)cc2)c2ccc(Cl)cc2)N1S(C)(=O)=O [Example 202, (βS)-4-chloro-β-(4-fluorobenzyl)-N-(3-fluoro-2-{2-[(2S,6S)-6-methyl-1-(methylsulfonyl)piperazin-2-yl]ethyl}phenyl)-L-phenylalaninamide] is 1.9-fold higher in IC50: 330 nM for the first, 620 nM for the second. The first is the more potent here.

CC[C@H]1CNC[C@H](CCc2c(F)cccc2NC(=O)[C@@H](N)[C@@H](c2ccc(F)cc2)c2cc(F)cc(F)c2)N1S(C)(=O)=O [Example 262, (βS)-β-(3,5-difluorophenyl)-N-(2-{2-[(2S,6S)-6-ethyl-1-(methylsulfonyl)piperazin-2-yl]ethyl}-3-fluorophenyl)-4-fluoro-L-phenylalaninamide] and C[C@H]1CNC[C@H](CCc2c(F)cccc2NC(=O)[C@@H](N)[C@@H](c2ccc(Cl)cc2)c2cc(F)cc(F)c2)N1S(=O)(=O)C1CC1 [Example 199, (βS)-4-chloro-N-(2-{2-[(2S,6S)-1-(cyclopropylsulfonyl)-6-methylpiperazin-2-yl]ethyl}-3-fluorophenyl)-β-(3,5-difluorophenyl)-L-phenylalaninamide] are within 1.5-fold of each other in IC50: 25 nM for the first, 20 nM for the second.

First: N[C@H](C(=O)Nc1cccc(F)c1CC[C@@H]1CNCCN1S(=O)(=O)c1ccccc1)[C@@H](c1ccc(Cl)c(F)c1)C1CCOCC1 [Example 38, (βR)-4-chloro-3-fluoro-N-(3-fluoro-2-{2-[(2R)-1-(phenylsulfonyl)piperazin-2-yl]ethyl}phenyl)-β-(tetrahydro-2H-pyran-4-yl)-L-phenylalaninamide]
Second: COC(=O)N[C@H](C(=O)Nc1cccc(F)c1CC[C@H]1CNCCN1S(=O)(=O)c1ccccc1)[C@@H](c1ccc(Cl)cc1)c1cncc(F)c1 [Example 55, (βS)-4-chloro-N-(3-fluoro-2-{2-[(2S)-1-(phenylsulfonyl)piperazin-2-yl]ethyl}phenyl)-β-(5-fluoropyridin-3-yl)-Nα-(methoxycarbonyl)-L-phenylalaninamide]
The IC50 of the first is 99-fold higher: 890 nM for the first, 9 nM for the second. The second is the more potent here.

Going from COC(=O)N[C@H](C(=O)Nc1cncc(F)c1CC[C@H]1CNCCN1S(C)(=O)=O)[C@@H](c1ccc(F)cc1)c1cc(F)cc(F)c1 [Example 48, methyl ((1S,2S)-1-(3,5-difluorophenyl)-3-((5-fluoro-4-(2-((S)-1-(methylsulfonyl)piperazin-2-yl)ethyl)pyridin-3-yl)amino)-1-(4-fluorophenyl)-3-oxopropan-2-yl)carbamate] to CC(C)CC1CCCN1S(=O)(=O)N1CCNC[C@@H]1CCc1c(F)cncc1NC(=O)C[C@@H](c1ccc(F)cc1)c1cc(F)cc(F)c1 (stereo partly drawn) [Example 337, (3S)-3-(3,5-difluorophenyl)-N-(5-fluoro-4-{2-[(2S)-1-{[2-(2-methylpropyl)pyrrolidin-1-yl]sulfonyl}piperazin-2-yl]ethyl}pyridin-3-yl)-3-(4-fluorophenyl)propanamide], the IC50 rises from 66 nM to 130 nM (2-fold). The first is the more potent here.

Going from COC(=O)N[C@H](C(=O)Nc1cccc(F)c1CC[C@H]1CNC[C@@H](C)N1S(=O)(=O)C1CC1)[C@@H](c1ccc(Cl)cc1)C(C)C [Example 145, (βR)-4-chloro-N-(2-{2-[(2S,6R)-1-(cyclopropylsulfonyl)-6-methylpiperazin-2-yl]ethyl}-3-fluorophenyl)-Nα-(methoxycarbonyl)-β-(1-methylethyl)-L-phenylalaninamide] to COC(=O)N[C@H](C(=O)Nc1cccc(F)c1CC[C@H]1CNCCN1S(C)(=O)=O)[C@@H](c1ccc(Cl)cc1)C1CCOC(C)(C)C1 (stereo partly drawn) [Example 79, (βR)-4-chloro-β-(2,2-dimethyltetrahydro-2H-pyran-4-yl)-N-(3-fluoro-2-{2-[(2S)-1-(methylsulfonyl)piperazin-2-yl]ethyl}phenyl)-Nα-(methoxycarbonyl)-L-phenylalaninamide], the IC50 falls from 170 nM to 30 nM (5.7-fold). The second is the more potent here.

Compared with C[C@@H]1CNC[C@H](CCc2c(F)cncc2NC(=O)[C@@H](N)[C@@H](c2ccc(Cl)cc2)C2CCOCC2)N1S(C)(=O)=O [Example 182, (βR)-4-chloro-N-(5-fluoro-4-{2-[(2S,6R)-6-methyl-1-(methylsulfonyl)piperazin-2-yl]ethyl}pyridin-3-yl)-β-(tetrahydro-2H-pyran-4-yl)-L-phenylalaninamide], COC(=O)N[C@H](C(=O)Nc1cccc(F)c1CC[C@H]1CNC[C@H](C)N1S(=O)(=O)c1ccc(OC(F)(F)F)cc1)[C@@H](c1ccc(Cl)cc1)c1ccc(OC)nc1 [Example 189, (βS)-4-chloro-N-(3-fluoro-2-{2-[(2S,6S)-6-methyl-1-{[4-(trifluoromethoxy)phenyl]sulfonyl}piperazin-2-yl]ethyl}phenyl)-Nα-(methoxycarbonyl)-β-(6-methoxypyridin-3-yl)-L-phenylalaninamide] is 4.5-fold lower in IC50: 130 nM for the first, 29 nM for the second. The second is the more potent here.

Compared with N[C@H](C(=O)Nc1cccc(F)c1CC[C@H]1CNCCN1S(=O)(=O)c1cc2ccccc2o1)[C@@H](c1ccc(F)cc1)c1cc(F)cc(F)c1 [Example 372, (2S,3S)-2-amino-N-(2-(2-((S)-1-(benzofuran-2-ylsulfonyl)piperazin-2-yl)ethyl)-3-fluorophenyl)-3-(3,5-difluorophenyl)-3-(4-fluorophenyl)propanamide], CN(CC(F)(F)F)S(=O)(=O)N1CCNC[C@@H]1CCc1c(F)cccc1NC(=O)[C@@H](N)C(c1ccc(F)cc1)c1ccc(F)cc1 [Example 68, 4-fluoro-N-[3-fluoro-2-(2-{(2S)-1-[methyl(2,2,2-trifluoroethyl)sulfamoyl]piperazin-2-yl}ethyl)phenyl]-β-(4-fluorophenyl)-L-phenylalaninamide] is 130-fold higher in IC50: 14 nM for the first, 1800 nM for the second.

Work on COC(=O)N[C@H](C(=O)Nc1cccc(F)c1CC[C@H]1CNC[C@H](C)N1S(=O)(=O)c1ccc(OC)cc1)C(c1cccc(F)c1)c1cccc(F)c1 [Example 157, 3-fluoro-N-[3-fluoro-2-(2-{(2S,6S)-1-[(4-methoxyphenyl)sulfonyl]-6-methylpiperazin-2-yl}ethyl)phenyl]-β-(3-fluorophenyl)-Nα-(methoxycarbonyl)-L-phenylalaninamide] yielded an IC50 of 7.3 nM.
